Numbering of substitutions follows the chain as printed.

The assay deals with T1, KNa1.1 WT/Y796H (Homo sapiens, UniProt Q5JUK3, Y796H).
T1 construct: gene KCNT1; full-length WT KNa1.1 and Y796H KNa1.1 subunits joined by self-cleaving T2A linker in pcDNA6
T1 sequence (Q5JUK3 1-1230): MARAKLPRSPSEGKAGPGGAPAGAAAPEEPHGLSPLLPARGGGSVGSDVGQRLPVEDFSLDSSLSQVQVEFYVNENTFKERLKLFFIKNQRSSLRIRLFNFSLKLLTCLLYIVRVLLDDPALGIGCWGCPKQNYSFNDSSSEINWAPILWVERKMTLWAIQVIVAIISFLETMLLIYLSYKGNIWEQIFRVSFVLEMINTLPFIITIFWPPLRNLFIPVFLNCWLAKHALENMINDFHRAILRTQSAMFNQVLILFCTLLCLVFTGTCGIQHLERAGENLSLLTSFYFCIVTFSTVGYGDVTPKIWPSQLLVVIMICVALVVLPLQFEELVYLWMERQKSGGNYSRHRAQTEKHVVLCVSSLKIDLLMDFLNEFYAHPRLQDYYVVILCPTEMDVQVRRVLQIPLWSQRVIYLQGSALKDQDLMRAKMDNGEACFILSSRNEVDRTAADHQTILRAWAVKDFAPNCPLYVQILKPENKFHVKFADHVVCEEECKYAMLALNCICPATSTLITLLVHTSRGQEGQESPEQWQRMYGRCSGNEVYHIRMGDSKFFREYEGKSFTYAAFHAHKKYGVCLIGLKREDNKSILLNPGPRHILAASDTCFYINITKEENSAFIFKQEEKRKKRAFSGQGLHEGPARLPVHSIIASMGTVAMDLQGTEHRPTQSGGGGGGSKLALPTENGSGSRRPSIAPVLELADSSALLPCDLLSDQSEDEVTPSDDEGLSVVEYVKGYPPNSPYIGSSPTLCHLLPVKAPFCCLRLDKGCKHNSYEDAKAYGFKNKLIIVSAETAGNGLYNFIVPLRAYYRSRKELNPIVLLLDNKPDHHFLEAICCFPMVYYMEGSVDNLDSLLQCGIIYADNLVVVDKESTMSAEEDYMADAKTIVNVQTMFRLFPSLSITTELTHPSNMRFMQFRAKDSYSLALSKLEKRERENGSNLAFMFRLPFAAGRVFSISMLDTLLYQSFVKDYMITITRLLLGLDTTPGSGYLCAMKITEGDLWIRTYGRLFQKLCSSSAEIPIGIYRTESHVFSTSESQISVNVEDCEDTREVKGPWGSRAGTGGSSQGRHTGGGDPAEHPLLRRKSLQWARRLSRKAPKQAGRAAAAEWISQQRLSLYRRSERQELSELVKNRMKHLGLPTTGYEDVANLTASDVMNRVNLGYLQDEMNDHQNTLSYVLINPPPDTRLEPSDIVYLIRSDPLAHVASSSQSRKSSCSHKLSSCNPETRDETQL
T1 sequence (Q5JUK3 1-1230 Y796H): T1 sequence (Q5JUK3 1-1230) with Y796H
The assay is described as follows: thallium flux (Thallos AM), HEK293. The class given is cell-based. The text has this:
thallium flux (Thallos AM), HEK293 on KNa1.1 WT/Y796H

The IC50 is the concentration needed to halve the response being measured. Low readings indicate inhibition by little substance, high ones a need for much substance. On to `CC(c1ccccc1)N1CCCN(c2cccc(NC(=O)Nc3cccc(Cl)c3)c2)C1=O` (stereo not shown) [compound 1, Cpd1], for which the midpoint of inhibition, the IC50, lay at 4.7 µM.
